Reference: paper PMC8895129, “Pseudomonas aeruginosa Biofilm Dispersion by the Human Atrial Natriuretic Peptide” (Advanced Science, 2022)
Read-outs that look alike come from different tables or passages of the source.

How the values were obtained:
[1] = tested on: human Ether-a-go-go Related Gene (hERG) channel
[2] = target: T1, AmiC (Pseudomonas aeruginosa, UniProt P27017); experiment: biochemical
Protocol: Briefly, AmiC protein was labeled using the RED‐NHS labeling kit (NanoTemper Technologies). The labeling reaction was performed according to the manufacturer's instructions in the supplied labeling buffer using a 20 × 10^−6 M protein concentration and a molar dye:protein ratio ≈2:1, at RT for 30 min. […] The label:protein ratio was determined using photometry at 650 and 280 nm. Typically, a ratio of 0.8 was achieved.
For thermophoresis, each ligand dilution was mixed with one volume of AmiC, which led to a final concentration of AmiC of 50 × 10^−9 M and final ligand concentrations at half of the ranges above. Instrument parameters were adjusted with 50% light‐emitting diode power and 20% MST power. Data of three independently pipetted measurements were analyzed (NT.Analysis software version 1.5.41, NanoTemper Technologies) using the signal from Thermophoresis + T‐Jump.

[3] = tested on: P. aeruginosa PA14 established biofilm; experiment: Dispersion of 24 h established biofilm in flow cell, CLSM/COMSTAT; type: cell-based, Pseudomonas aeruginosa; conditions: mean ± SEM; for biofilm biovolumes reduction: 37 °C
Protocol: For biofilm dispersion experiments, overnight cultures of P. aeruginosa strains were performed in LB medium at 37 °C for 18 h with shaking (180 rpm). Bacterial cells were then washed and adjusted to OD580 = 0.1 in 0.9% w/v NaCl. The bacterial suspensions were then used to form a biofilm for 24 h under hydrodynamic conditions at 37 °C. Briefly, each channel of the flow cell was inoculated with 300 µL of bacterial suspension. A 2 h attachment step was performed without flow. After 2 h, each channel was then pumped with a 2.5 mL h^–1 flow rate of LB medium during 24 h. Next, the 24 h old biofilm of P. aeruginosa was exposed for 2 h (or 30 min) to 300 µL of studied compounds (i.e., peptides, antibiotics, or a combination of peptide + antibiotics) or 300 µL of ultra‐pure distilled water (control condition), added to each channel of the flow cell and without flow. Prior to image acquisition, biofilm cultures were then rinsed with LB medium using 2.5 mL h^–1 flow rate for 15 min. Finally, biofilm cells were stained and then observed by CLSM.
The CLSM observations of biofilms were performed using a Zeiss LSM710 microscope (Carl Zeiss Microscopy, Oberkochen, Germany) using a x40 oil immersion objective. Bacteria into the biofilm were stained with 5 × 10^−6 M of SYTO9 green‐fluorescent dye (Invitrogen, Carlsbad, CA). Biofilm matrix components were stained using fluorescent dyes. To assess the eDNA relative abundance, 1 × 10^−6 M of DDAO (Invitrogen, Carlsbad, CA) was used. The polysaccharides β1‐3 and β1‐4 were labeled with CalcoFluor White M2R at 200 µg mL^−1 (Sigma‐Aldrich, USA). eDNA and polysaccharides values were normalized to biofilms’ biomass. The Live/Dead BacLight kit (Invitrogen, Carlsbad, CA) was used to examine bacterial viability in biofilms according to manufacturer instructions. Images were taken every micrometer throughout the whole biofilm depth. For visualization and processing of 3D image, the Zen 2.1 SP1 software (Carl Zeiss Microscopy, Oberkochen, Germany) was used. Quantitative analyses of images stacks were performed using the COMSTAT software (http://www.imageanalysis.dk/).^[ [77] ^] At least three image stacks from at least three independent experiments were used for each analysis.

[4] = target: T1, AmiC; design: made in house; conditions: cited from earlier work
From the text: […]; see 2.0 ± 0.3 × 10^−6 M for hCNP^[ [44] ^]). This is consistent with the van der Waals and hydrog ...

T1 sequence (P27017 whole entry): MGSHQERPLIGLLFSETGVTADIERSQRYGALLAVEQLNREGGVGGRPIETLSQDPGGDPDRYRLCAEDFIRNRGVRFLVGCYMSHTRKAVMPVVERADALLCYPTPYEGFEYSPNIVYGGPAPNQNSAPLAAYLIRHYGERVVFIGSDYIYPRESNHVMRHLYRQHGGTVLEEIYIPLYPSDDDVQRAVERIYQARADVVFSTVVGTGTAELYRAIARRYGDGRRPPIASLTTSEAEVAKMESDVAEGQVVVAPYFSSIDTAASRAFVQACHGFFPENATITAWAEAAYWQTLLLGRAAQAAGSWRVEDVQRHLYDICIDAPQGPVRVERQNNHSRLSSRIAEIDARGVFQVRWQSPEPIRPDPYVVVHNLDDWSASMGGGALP

Q: Which “hERG cardiac channel conductance” value [1] does the source give for `CC[C@H](C)[C@@H]1NC(=O)[C@H](CCCNC(=N)N)NC(=O)[C@H](CC(=O)O)NC(=O)[C@H](CCSC)NC(=O)[C@H](CCCNC(=N)N)NC(=O)CNC(=O)CNC(=O)[C@H](Cc2ccccc2)NC(=O)[C@@H](NC(=O)[C@H](CO)NC(=O)[C@H](CO)NC(=O)[C@H](CCCNC(=N)N)NC(=O)[C@H](CCCNC(=N)N)NC(=O)[C@H](CC(C)C)NC(=O)[C@@H](N)CO)CSSC[C@@H](C(=O)N[C@@H](CC(N)=O)C(=O)N[C@@H](CO)C(=O)N[C@@H](Cc2ccccc2)C(=O)N[C@@H](CCCNC(=N)N)C(=O)N[C@@H](Cc2ccc(O)cc2)C(=O)O)NC(=O)CNC(=O)[C@H](CC(C)C)NC(=O)CNC(=O)[C@H](CO)NC(=O)[C@H](CCC(N)=O)NC(=O)[C@H](C)NC(=O)CNC1=O` [hANP, human Atrial Natriuretic Peptide] here?
A: did not modify

Q: What about the Kd [2] of the same compound?
A: 5 ± 3 µM

Q: For `C[C@@H](O)[C@H]1C(=O)N2C(C(=O)O)=C(SCCN=CN)C[C@H]12` [imipenem], which biofilm reduction ([3]; imipenem 0.5 µg mL^−1, 2 h, n = 5) is on record?
A: 69.8 ± 3.0%

Q: Which biofilm biovolumes reduction ([3]; tobramycin 10 µg mL^−1, 2 h, n = 3) does the source give for `NC[C@H]1O[C@H](O[C@H]2[C@H](O)[C@@H](O[C@H]3O[C@H](CO)[C@@H](O)[C@H](N)[C@H]3O)[C@H](N)C[C@@H]2N)[C@H](N)C[C@@H]1O` [tobramycin] here?
A: 79.0 ± 4.0%

Q: And the biofilm biovolumes reduction ([3]; tobramycin 50 µg mL^−1, 2 h, n = 4)?
A: 76.6 ± 4.0%

Q: For Brain Natriuretic Peptide [hBNP], which “affinity for AmiC” value [4] is on record?
A: no affinity

Q: Which Kd ([4]; microscale thermophoresis, read-out: K D, binding to AmiC) does the source give for C‐type Natriuretic Peptide [hCNP] here?
A: 2 ± 0.3 µM

Q: For polymyxin B, which biovolume reduction ([3]; polymyxin B 4 µg mL^−1, 2 h, n = 5) is on record?
A: 70.0 ± 4.3%
